Assay results reported in PMC12518634, “The noncanonical function of liver-type phosphofructokinase potentiates the efficacy of HDAC inhibitors in cancer” (Signal Transduction and Targeted Therapy, 2025).
Where two headings read alike, the source gives them in different places.

What was measured:
783C-6 = assay: High-throughput drug screen, CellTiter-Glo viability, 72 h; assay type: cell-based, human; parameters: AUC: scale not given here; settings: for AUC: area under the dose-response curve; for EC50: 72 h, read-out: EC50
In short: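 Cholangiocarcinoma cells were seeded at 3000/well in 384-well plates and dosed after 24 h. Drugs were tested at 10, 1, 0.1, 0.01 and 0.001 μM in duplicate for 72 h, with viability read by CellTiter-Glo luminescence.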

1405R3 = assay: as above; assay type: cell-based, human; parameters: AUC: scale not given here; settings: for AUC: area under the dose-response curve; for MIN: lower asymptote of fitted dose-response curve; for EC50: 72 h, fitted dose-response curve, Min.Conc.tested 1, Max.Conc.tested 10000, read-out: EC50; for SLOPE: slope of fitted dose-response curve
In short: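 Responses are drug sensitivity scores (efficacy cutoff ≥10), fitted from CellTiter-Glo luminescence. Each drug was given at five concentrations (10 to 0.001 μM, tenfold steps) in duplicate for 72 h. Cells were plated at 3000/well 24 h before dosing.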

[1] = 783C-6 cells, DSS of DSRT analysis
[2] = 783C-6 cells, minimum of dose-response curve
[3] = 1405R3 DSRT analysis, drug sensitivity score
[4] = Homo sapiens, 1405R3 DSRT analysis, CellTiter-Glo viability, GI50
[5] = 783C-6 DSRT analysis, CellTiter-Glo viability, fitted dose-response curve, Min.Conc.tested 1, Max.Conc.tested 10000
[6] = 783C-6 DSRT analysis, DSS calculated from the dose-response curve
[7] = 783C-6 DSRT analysis, MIN of the fitted dose-response curve
[8] = 783C-6 DSRT analysis, slope of the fitted dose-response curve
[9] = 1405R3 DSRT analysis, CellTiter-Glo
[10] = 783C-6 cells, DSRT analysis, CellTiter-Glo viability, concentrations tested 1 to 10000 (unit inferred), GI50
[11] = 783C-6 cells, slope of fitted dose-response curve
[12] = 1405R3 DSRT analysis, CellTiter-Glo viability, GI50
[13] = Homo sapiens, 1405R3 DSRT analysis, CellTiter-Glo

Row | Compound | DSS (783C-6; [1]) | AUC (783C-6; 783C-6 cells) | MIN (783C-6; [2]) | AUC (1405R3; 1405R3 DSRT analysis) | DSS (1405R3; [3]) | MIN (1405R3; 1405R3 DSRT analysis) | DSS (783C-6; [6]) | MIN (783C-6; [7]) | AUC (783C-6; 783C-6 DSRT analysis) | SLOPE (783C-6; [8]) | DSS (1405R3; 1405R3 DSRT analysis, DSS) | SLOPE (1405R3; 1405R3 DSRT analysis) | also measured
1 | Cn1cc(CNCC2CCN(c3ncc(C(=O)NO)cn3)CC2)c2ccccc21 [Quisinostat] | 26.9 | 227.2 | 1.2 | 180.7 | 21.1 | 0.1 | – | – | – | – | – | – | EC50 (783C-6; Homo sapiens): 50 nM; EC50 (1405R3; [4]): 156 nM
2 | (-)-Parthenolide | – | – | – | 33.7 | – | 34.2 | 2.7 | 68.4 | 26.5 | -2.5 | 3.6 | -2.5 | EC50 (783C-6; [5]): 1460 nM; EC50 (1405R3; [9]): 3140 nM
3 | CS(=O)(=O)CCNCc1ccc(-c2ccc3ncnc(Nc4ccc(OCc5cccc(F)c5)c(Cl)c4)c3c2)o1 [Lapatinib] | – | – | – | 0 | – | 99.9 | 0 | 93.5 | 2 | – | 0 | – | –
4 | CC(C)(C)OC(=O)Nc1ccc(-c2cc(C(=O)NCCCCCCC(=O)NO)no2)cc1 [CAY10603] | – | – | – | 45.4 | – | 20.6 | 4.4 | 30.8 | 39.5 | -2.5 | 5 | -2.5 | EC50 (783C-6; [5]): 2730 nM; EC50 (1405R3; [9]): 2720 nM
5 | O=C(NO)c1cccc(C(=O)NCCc2ccccc2)c1 [BRD73954] | – | – | – | 13.2 | – | 91.5 | 0 | 90.9 | 14 | -0.1 | 0 | -0.1 | –
6 | C[C@@H]1O[C@@H](O[C@H]2[C@H](O[C@H]3[C@H](O[C@H]4CC[C@]5(C)[C@H]6CC=C7[C@@H]8CC(C)(C)CC[C@]8(C(=O)O)CC[C@@]7(C)[C@]6(C)CC[C@H]5C4(C)C)OC[C@H](O)[C@@H]3O)O[C@H](CO)[C@@H](O)[C@@H]2O)[C@H](O)[C@H](O)[C@H]1O [Raddeanin A] | 5.9 | 52.9 | 3.4 | 56.1 | 6.3 | 1.8 | – | – | – | – | – | -2.5 | EC50 (783C-6; [10]): 2880 nM; SLOPE (783C-6; [11]): -2.5; EC50 (1405R3; [12]): 2720 nM
7 | CCCc1cc(C)[nH]c(=O)c1CNC(=O)c1cc(-c2ccnc(N3CCN(C)CC3)c2)cc2c1cnn2C(C)C [GSK343] | – | – | – | 13.6 | – | 91.2 | 0 | 98.1 | 2.9 | – | 0 | – | –
8 | N[C@@H]1CCCN(c2c(/C=C3\SC(=O)NC3=O)cccc2-c2ccccc2)C1 [AZD1208] | – | – | – | 16 | – | 87 | 0 | 87.6 | 19.2 | -0.1 | 0 | -0.2 | –
9 | C=CC(=O)N1CC[C@H](n2nc(C#Cc3cc(OC)cc(OC)c3)c3c(N)ncnc32)C1 [TAS-120] | 0 | 1.7 | 94.4 | 7.2 | 0 | 91.3 | – | – | – | – | – | – | –
10 | CN1CCC(CNc2ccc3ncc(-c4cccc(OC(F)(F)F)c4)n3n2)CC1 [SGI-1776 free base] | 4.9 | 44.9 | 10.3 | 51.4 | 5.7 | 1.9 | – | – | – | – | – | -2.5 | EC50 (783C-6; [10]): 3230 nM; SLOPE (783C-6; [11]): -2.5; EC50 (1405R3; [12]): 3060 nM
11 | c1cncc(-c2cn[nH]n2)c1 [3-TYP] | – | – | – | 4.8 | – | 96.9 | 0 | 94.7 | 2.5 | -0.6 | 0 | -0.1 | –
12 | CC(C)N(CCCNC(=O)Nc1ccc(C(C)(C)C)cc1)C[C@H]1O[C@@H](n2ccc3c(N)ncnc32)[C@H](O)[C@@H]1O [EPZ004777] | – | – | – | 0.5 | – | 98.8 | 0 | 97.4 | 0.7 | – | 0 | – | –
13 | Clc1ccc(N/N=C(\c2ccccc2)c2ccccn2)nc1 [JIB-04] | – | – | – | 73.8 | – | 34.7 | 4.8 | 18.2 | 43.9 | -2.5 | 8.1 | -1.2 | EC50 (783C-6; [5]): 2960 nM; EC50 (1405R3; [9]): 766 nM
14 | Cc1sc2c(c1C)C(c1ccc(Cl)cc1)=N[C@@H](CC(=O)NCCCCCCCCNC(=O)COc1cccc3c1C(=O)N(C1CCC(=O)NC1=O)C3=O)c1nnc(C)n1-2 (stereo partly shown) [DBET6] | – | – | – | 8.2 | – | 80 | 6.9 | 29.1 | 59.2 | -2.5 | 0.4 | -2.5 | EC50 (783C-6; [5]): 1470 nM
15 | Cc1cc(Nc2cc(N3CCN(C)CC3)nc(Sc3ccc(NC(=O)C4CC4)cc3)n2)[nH]n1 [Tozasertib] | 4.1 | 41.4 | 78.1 | 19.9 | – | 76.4 | – | – | – | – | – | – | DSS (1405R3): 1.8
16 | COc1cccc2c1C(=O)c1c(O)c3c(c(O)c1C2=O)C[C@@](O)(C(=O)CO)C[C@@H]3O[C@H]1C[C@H](N)[C@@H](O)[C@H](C)O1 [Epirubicin] | – | – | – | 64.9 | – | 27.7 | 13.9 | 33.9 | 113.1 | – | 7.1 | – | EC50 (783C-6; Homo sapiens): 194 nM; EC50 (1405R3; [13]): 1310 nM
17 | O=C(CCCCCCNC(=O)c1cnc(N(c2ccccc2)c2ccccc2)nc1)NO [Ricolinostat] | 2.2 | 22.4 | 66.7 | 20.6 | 1.9 | 71.1 | – | – | – | – | – | – | EC50 (783C-6; Homo sapiens): 2140 nM; EC50 (1405R3; [4]): 1950 nM
18 | C#Cc1cccc(Nc2ncnc3cc(OC)c(OCCCCCCC(=O)NO)cc23)c1 [CUDC-101] | – | – | – | 85.7 | – | 2.9 | 8.7 | 2.2 | 75.9 | – | 10 | – | EC50 (783C-6; Homo sapiens): 1680 nM; EC50 (1405R3; [13]): 1310 nM
19 | COc1cc(C)[nH]c(=O)c1CNC(=O)c1c(C)n([C@H](C)C2CCOCC2)c2ccccc12 [CPI-360] | – | – | – | 11.9 | – | 92.3 | 0.1 | 84.8 | 36.1 | – | 0 | – | –
20 | Nc1cc(F)ccc1NC(=O)/C=C/c1cnn(C/C=C/c2ccccc2)c1 [RGFP966] | 0 | 7 | 93.9 | 0.2 | 0 | 98.3 | – | – | – | – | – | – | –
